Consider ten molecules from ChEMBL document CHEMBL1201862, “PubChem BioAssay data set” (2004).

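Assay format: 96-well plates, 48-hour exposure. Abbreviation: GI50, concentration required for 50% inhibition of growth.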 Active and inactive are the calls of the source. Rule as the data show it: active = GI50 up to about 1.1 µM and inactive = higher.

What all share (assay): growth of human tumour cells (NCI), 48 h
Experiment [1] concerns MDA-MB-435.
The subject of experiment [2] is SK-MEL-5.
In experiment [3] the test system is NCI-H23.
The test system of experiment [4] is UACC-62.
The test system of experiment [5] is SF-268.
In experiment [6] the test system is IGROV-1.
Experiment [7] concerns TK-10.
For experiment [8], the system named is NCI/ADR-RES.
In experiment [9] the test system is BT-549.
For experiment [10], the system named is HL-60.
Experiment [11] relates to RXF 393.
The test system of experiment [12] is HCT-15.
Experiment [13] concerns T47D.
The test system of experiment [14] is HOP-92.
In experiment [15] the test system is RPMI-8226.
Experiment [16] has as its system COLO 205.
The subject of experiment [17] is SK-MEL-2.
Experiment [18] has as its system K562.
For experiment [19], the system named is EKVX.
In experiment [20] the test system is UACC-257.

Take `CCOc1cc2c(c(OCC)c1O)CC[C@@H]1[C@@H]2CC[C@]2(C)[C@@H](O)CC[C@@H]12`: the GI50 in experiment [1] is 0.203 µM (active); in [2], 1.21 µM (inactive); in [3], 4.2 µM (inactive); in experiment [4], 0.482 µM (active); in experiment [5], 4.79 µM (inactive); in experiment [6], 6.76 µM (inactive). Further, the GI50 is 25.3 µM (inactive) in experiment [7]; 3.23 µM (inactive) in experiment [8]; 0.418 µM (active) in [9]; 0.297 µM (active) in experiment [10]; 2.21 µM (inactive) in experiment [11]; 0.289 µM in experiment [12]. The GI50 in experiment [13] was 2.33 µM (inactive); in [14], 18.7 µM (inactive); in [15], 2.74 µM (inactive); in experiment [16] it was 20.5 µM (inactive); in experiment [17] it was 14 µM (inactive); in experiment [18] it was 0.329 µM (active). Moreover, the GI50 in [19] was 6.1 µM (inactive).
As to `c1ccc(-c2cc(-c3cc(-c4ccccn4)[nH]n3)n[nH]2)nc1`, the GI50 in [1] is > 100 µM (inactive); in experiment [2], > 100 µM (inactive); in experiment [3], 95.5 µM (inactive); in experiment [4], > 100 µM (inactive); in experiment [5], > 100 µM (inactive); in experiment [6], > 100 µM (inactive). For the same molecule, the GI50 in experiment [8] was 44.5 µM (inactive); in experiment [9], > 100 µM (inactive); in experiment [20], > 100 µM (inactive); in experiment [10], 84.3 µM (inactive); in experiment [11], > 100 µM (inactive); in experiment [12] it was 55.7 µM. For the same molecule, the GI50 is 80.4 µM (inactive) in [13]; 77.8 µM (inactive) in experiment [14]; 70.6 µM (inactive) in experiment [15]; > 100 µM (inactive) in [16]; > 100 µM (inactive) in experiment [17]; 8.45 µM (inactive) in [18]. Further, in [19], the GI50 was 25.4 µM (inactive).
For `C/C(=N\Nc1ccc2ccccc2n1)c1ccccc1O`, the GI50 in experiment [1] is > 100 µM (inactive); in experiment [2], > 100 µM (inactive); in experiment [3], > 100 µM (inactive); in experiment [4] it was > 100 µM (inactive); in experiment [5], 24.5 µM (inactive); in [6] it was > 100 µM (inactive). Also, the GI50 in experiment [7] is > 86.3 µM (inactive); in [8], > 37.5 µM (inactive); in experiment [9], > 100 µM (inactive); in experiment [20], > 100 µM (inactive); in [10] it was > 100 µM (inactive); in experiment [11], > 72.6 µM (inactive). In addition, the GI50 in experiment [12] is 11.4 µM; in [13], 3.96 µM (inactive); in [14], > 100 µM (inactive); in experiment [15], 7.23 µM (inactive); in experiment [16] it was > 100 µM (inactive); in [17], > 100 µM (inactive). Also, the GI50 in experiment [18] was 7.38 µM (inactive); in experiment [19], 19.6 µM (inactive).
On to `N/C(=N\Nc1ccc(S(N)(=O)=O)cc1)c1cnccn1`, for which the GI50 in [1], in experiment [2], in experiment [3], in [4], in [5] and in [6] was > 100 µM (inactive) throughout. Further, the GI50 in experiment [7], in experiment [8], in experiment [9], in [20], in experiment [10] and in [11] was > 100 µM (inactive) throughout. Besides, the GI50 in [12] was more than 100 µM; in experiment [13] it was > 100 µM (inactive); in experiment [14], > 100 µM (inactive); in [15], > 100 µM (inactive); in experiment [16] it was > 100 µM (inactive); in experiment [17], > 100 µM (inactive). The GI50 in experiment [18] and in experiment [19] was > 100 µM (inactive) throughout.
For `CCOC1c2cc(OC)c(OC)cc2-c2ccc3ccccc3c2N1C` (configuration not stated), the GI50 was 13.8 µM (inactive) in [1]; 16.4 µM (inactive) in experiment [2]; 8 µM (inactive) in [3]; 12.6 µM (inactive) in experiment [4]; 2.05 µM (inactive) in experiment [5]; 19.2 µM (inactive) in experiment [6]. Besides, the GI50 was 31.6 µM (inactive) in experiment [7]; 29.7 µM (inactive) in experiment [8]; 12.6 µM (inactive) in experiment [9]; 16.6 µM (inactive) in experiment [20]; 44.1 µM (inactive) in experiment [10]; 21.7 µM (inactive) in [11]. For the same molecule, the GI50 is 60.1 µM in experiment [12]; 4.84 µM (inactive) in experiment [13]; 21.9 µM (inactive) in experiment [14]; 10.7 µM (inactive) in experiment [15]; 6.05 µM (inactive) in experiment [16]; 13.9 µM (inactive) in experiment [17]. Moreover, the GI50 in experiment [18] is 7.16 µM (inactive); in experiment [19], 6.27 µM (inactive).
For the molecule `COc1ccc(-c2sc(Br)c3c2C(=O)C2OC(=O)NC32)cc1OC` (configuration not stated), the GI50 in experiment [1], in [2], in experiment [3], in [4], in [5] and in experiment [6] was > 100 µM (inactive) in each case. Moreover, the GI50 in experiment [7], in experiment [8], in [9], in experiment [20], in [10] and in [11] was > 100 µM (inactive) in each case. In addition, the GI50 was more than 100 µM in experiment [12]; > 100 µM (inactive) in [13]; > 100 µM (inactive) in [14]; > 100 µM (inactive) in experiment [15]; > 100 µM (inactive) in experiment [16]; > 100 µM (inactive) in experiment [17]. Further, the GI50 in experiment [18] and in experiment [19] was > 100 µM (inactive) in each case.
On to `O=C1c2ccccc2-c2nnc3c(c21)Cc1ccccc1C3`, for which the GI50 in experiment [1], in [2], in [3], in experiment [4], in experiment [5] and in [6] was > 10 µM (inactive) throughout. Besides, the GI50 in [7] was > 10 µM (inactive); in experiment [8], > 10 µM (inactive); in experiment [9], > 10 µM (inactive); in experiment [10], > 10 µM (inactive); in [11], > 10 µM (inactive); in experiment [12], more than 10 µM. The GI50 in experiment [13], in [14], in experiment [15], in [16], in experiment [17] and in experiment [18] was > 10 µM (inactive) in each case. In addition, in experiment [19], the GI50 was > 10 µM (inactive).
For `COC(=O)/C(=C(\C)NC(C)=O)c1c(C(=O)OC)[nH]c2ccccc12`, the GI50 in experiment [1], in experiment [2], in experiment [3], in [4], in experiment [5] and in experiment [6] was > 100 µM (inactive) each time. The GI50 in [7], in [8], in experiment [9], in [20], in experiment [10] and in [11] was > 100 µM (inactive) throughout. The GI50 is more than 100 µM in [12]; > 100 µM (inactive) in experiment [13]; > 100 µM (inactive) in experiment [14]; > 100 µM (inactive) in experiment [15]; > 100 µM (inactive) in experiment [16]; > 100 µM (inactive) in [17]. In addition, the GI50 in [18] and in experiment [19] was > 100 µM (inactive) each time.
`COC(=O)[C@]1(c2cc3ccccc3[nH]2)CC2CN(CC(=O)N(C)OC)C1CC2(OC)OC` (some centres not stated): the GI50 was 27.5 µM (inactive) in experiment [1]; 40.6 µM (inactive) in experiment [2]; 36 µM (inactive) in [3]; 67.8 µM (inactive) in [4]; 67.6 µM (inactive) in [5]; 48.3 µM (inactive) in [6]. Moreover, the GI50 was > 100 µM (inactive) in experiment [7]; 41.2 µM (inactive) in experiment [8]; 23.3 µM (inactive) in experiment [9]; 71.3 µM (inactive) in experiment [20]; 19.4 µM (inactive) in experiment [10]; 33.5 µM (inactive) in experiment [11]. Also, the GI50 in experiment [12] is 28.2 µM; in experiment [13], 22 µM (inactive); in experiment [14], 87.5 µM (inactive); in [15] it was 14.7 µM (inactive); in experiment [16], 83.6 µM (inactive); in experiment [17] it was 39 µM (inactive). Further, the GI50 in experiment [18] is 24.9 µM (inactive); in experiment [19] it was 56.6 µM (inactive).
Consider `CCCCc1ccc(Nc2nc3ncnc-3c[nH]2)cc1`, for which the GI50 is 33.7 µM (inactive) in [1]; 16.6 µM (inactive) in experiment [2]; 18.2 µM (inactive) in experiment [3]; 21 µM (inactive) in [4]; 16.3 µM (inactive) in experiment [5]; 17.3 µM (inactive) in experiment [6]. The GI50 in experiment [7] was 17 µM (inactive); in experiment [8] it was 18.3 µM (inactive); in experiment [9], 25.7 µM (inactive); in [20] it was 21.2 µM (inactive); in [10] it was 38.5 µM (inactive); in experiment [11] it was 18.5 µM (inactive). Further, the GI50 is 17.5 µM in [12]; 19.1 µM (inactive) in [13]; 21.8 µM (inactive) in [14]; 14.8 µM (inactive) in [15]; 16.7 µM (inactive) in experiment [16]; 20.2 µM (inactive) in experiment [17]. Also, the GI50 in [18] was 33.3 µM (inactive); in [19], 25.8 µM (inactive).
